Active and inactive are the calls of the source. The rule behind the calls is not given here.
Columns and labels:
HEK-293T = test: (§1) Inhibition of His-6 tagged SARS-CoV-2 spike protein uptake in ACE2 overexpressing HEK293T cells at 1 uM incubated for 30 mins by DAPI staining based confocal microscopy analysis; assay type: functional; details: Homo sapiens
[1] = as §1; assay type: functional; details: Homo sapiens, HEK-293T, 0.5 h

Question: With CN(C)CC#Cc1ccc2[nH]c3c(c2c1)-c1nc(N)ncc1CCC3 as the compound, how does the inhibition (HEK-293T) read?
Answer: The inhibition was “Active”.

Question: For Nc1ncc2c(n1)-c1c([nH]c3ccc(-c4ccc(F)cc4)cc13)CCC2, which inhibition (HEK-293T) is on record?
Answer: The inhibition was “Active”.

Question: Which inhibition at 1 µM [1] does the source give for CC(C)(O)C#Cc1ccc2[nH]c3c(c2c1)-c1nc(N)ncc1CCC3 here?
Answer: The inhibition at 1 µM was < 10%.

Question: Which inhibition (HEK-293T) does the source give for Cc1cccc(/C=N/Nc2cc(N3CCOCC3)nc(OCCc3ccccn3)n2)c1 here?
Answer: The inhibition was “Active”.

Source: ChEMBL document CHEMBL5108045, “Identification and Utilization of a Chemical Probe to Interrogate the Roles of PIKfyve in the Lifecycle of β-Coronaviruses” (J Med Chem, 2022)
